Results published in PMC8753592, “Long-acting capsid inhibitor protects macaques from repeat SHIV challenges” (Nature, 2021).
Several values for one entry are separate records, joined by “and”; a condition that tells them apart may be missing. Equal values may be shown once. Read-outs that look alike come from different tables or passages of the source.

What was measured:
HIV-1 IIIb strain = test: High-density antiviral dose–response curves (Hill slope) against HIV-1 IIIb in MT-4 cells; assay type: cell-based
[1] = Metabolic stability of [3H]GS-CA1 in primary rhesus hepatocytes; assay type: in vitro ADME
Procedure: Propranolol (1 μM final), a compound known to be efficiently metabolized by hepatocytes by oxidation and conjugation, was used as a positive control. A cell-free control was incubated in parallel as a negative control. Aliquots (100 μl) were removed after 0 h, 1 h, 3 h and 6 h and were then mixed with 200 μl quenching solution, placed on a shaker for 10 min and centrifuged at 3,000g for 60 min. The supernatant was transferred to a new plate, diluted with 100 μl water and placed on a shaker for 10 min. […] PerkinElmer Ultima-Flo was used as the scintillation cocktail, which was mixed with the HPLC effluent at a ratio of 1:1. Sample (100 μl) was injected using a Leap Technologies CTC PAL autosampler. Separation was achieved on a Phenomenex Synergi Fusion-RP 80-Å pore size, 4-μm particle size, 150 × 4.6-mm column maintained at 32 °C. Mobile phase A consisted of 95% water, 5% acetonitrile and 0.1% trifluoroacetic acid (TFA). Mobile phase B consisted of 95% acetonitrile, 5% water and 0.1% TFA. […] The column was allowed to re-equilibrate for 12 min between injections. Quantification was based on the radiochromatographic peak area using Dionex (Thermo Scientific) Chromeleon 6.8 software.

[2] = Plasma GS-CA1 pharmacokinetics in the repeat SHIV challenge study; assay type: in vivo, rhesus macaques of Indian origin
Procedure: For the challenge study, 24 outbred rhesus macaques of Indian origin were assigned to the three study groups with even sex and weight distributions. All animals were housed at Alpha Genesis (Yemassee, SC), and all procedures were conducted in compliance with all relevant local, state and federal regulations and were approved by the Alpha Genesis IACUC. […] The injection sites were monitored daily by veterinary staff for 3 days. Beginning in week 1, animals in all three groups were challenged by the intrarectal route with 1 ml of RPMI containing the specified dilution of a 3.62 × 10^3 TCID50 SHIV-SF162P3 stock. At each respective time point, the challenges were performed on the same day, using the same virus stock and inoculation method across the three groups. Whole blood was collected and processed into plasma and PBMCs as necessary to assess routine haematology, clinical chemistry, viral load and serology as well as for bioanalysis of drug levels. The animals were considered to be protected if they remained SHIV negative by plasma PCR assay and seronegative by enzyme immunoassay throughout the 15-week challenge phase and the 9-week follow-up.
Rhesus plasma samples were stored frozen at −80 °C.

HIV-1 isolates = settings: ref Yant et al, Nat.Med, 2019;[4]; read-out: EC50, human PBMCs, HIV-1 isolates; cited from earlier work
HIV capsid = settings: ref Yant et al, Nat.Med, 2019;[4]; cited from earlier work
[3] = molecular target: CA precursor (Gag polyprotein); settings: ref Yant et al, Nat.Med, 2019;[4]; read-out: Binding Affinity (KD), CA precursor (Gag polyprotein); cited from earlier work
CA monomer = settings: ref Yant et al, Nat.Med, 2019;[4]; read-out: Binding Affinity (KD), CA monomer; cited from earlier work
CA pentamer = settings: ref Yant et al, Nat.Med, 2019;[4]; read-out: Binding Affinity (KD), CA pentamer; cited from earlier work
[4] = ref Yant et al, Nat.Med, 2019;[4], cited from earlier work
[5] = ref Yant et al, Nat.Med, 2019;[4]; cited from earlier work
[6] = both sexes, Indian origin, rhesus monkey, in vivo, sc, 150 mg/kg, 150 mg/kg single s.c., n=8, mean ± SD
[7] = both sexes, Indian origin, rhesus monkey, in vivo, sc, 300 mg/kg, 300 mg/kg single s.c., n=8, mean ± SD
[8] = both sexes, Indian origin, rhesus monkey, in vivo, sc, 150 mg/kg single s.c., n=8, mean ± SD
[9] = both sexes, Indian origin, rhesus monkey, in vivo, sc, 300 mg/kg single s.c., n=8, mean ± SD

Which results are given for `CC(C)(C#Cc1ccc(-c2ccc(Cl)c3c(NS(=O)(=O)C4CC4)nn(CC(F)F)c23)c([C@H](Cc2cc(F)cc(F)c2)NC(=O)Cn2nc(C(F)F)c3c2C(F)(F)[C@@H]2C[C@H]32)n1)S(C)(=O)=O` [GS-CA1]?
Hill slope (n) (HIV-1 IIIb strain): 3.03 ± 0.69 and 3.0 ± 0.7; hepatic extraction [1]: 2.9%; predicted rate of hepatic clearance ([1]; 3H-labelled GS-CA1): 0.07 L/h/kg; time above the rhesus paEC95 ([2]; 150 mg/kg single s.c.): 8–15 weeks; time six times above the rhesus paEC95 ([2]; 150 mg/kg single s.c.): 3–7 weeks; Cmax ([2]; 150 mg/kg single s.c., n=8, mean ± SD): 3.02 ± 1.07 µM; Plasma GS-CA1 ([2]; 150 mg/kg single s.c., Week 1, individual animals): 899.55 nM; Plasma GS-CA1 ([2]; 150 mg/kg single s.c., Week 2, individual animals): 1188.65 nM; Plasma GS-CA1 ([2]; 150 mg/kg single s.c., Week 3, individual animals): 497.91 nM; Plasma GS-CA1 ([2]; 150 mg/kg single s.c., Week 4, individual animals): 153.01 nM; Plasma GS-CA1 ([2]; 150 mg/kg single s.c., Week 5, individual animals): 181.45 nM; Plasma GS-CA1 ([2]; 150 mg/kg single s.c., Week 6, individual animals): 238.73 nM; Plasma GS-CA1 ([2]; 150 mg/kg single s.c., Week 7, individual animals): 104 nM; Plasma GS-CA1 ([2]; 150 mg/kg single s.c., Week 8, individual animals): 126.07 nM; Plasma GS-CA1 ([2]; 150 mg/kg single s.c., Week 9, individual animals): 74.21 nM and 60.58 nM; Plasma GS-CA1 ([2]; 150 mg/kg single s.c., Week 10, individual animals): 50.06 nM and 64.16 nM; Plasma GS-CA1 ([2]; 150 mg/kg single s.c., Week 11, individual animals): 28.74 nM and 29.18 nM; Plasma GS-CA1 ([2]; 150 mg/kg single s.c., Week 12, individual animals): 46.73 nM and 64.14 nM; Plasma GS-CA1 ([2]; 150 mg/kg single s.c., Week 13, individual animals): 44.36 nM; Plasma GS-CA1 ([2]; 150 mg/kg single s.c., Week 14, individual animals): 34.07 nM; Plasma GS-CA1 ([2]; 150 mg/kg single s.c., Week 15, individual animals): 17.38 nM; Plasma GS-CA1 ([2]; 150 mg/kg single s.c., Week 16, individual animals): 12.74 nM; Plasma GS-CA1 ([2]; 150 mg/kg single s.c., Week 17, individual animals): 16.54 nM; Plasma GS-CA1 ([2]; 150 mg/kg single s.c., Week 18, individual animals): 11.37 nM; Plasma GS-CA1 ([2]; 150 mg/kg single s.c., Week 19, individual animals): 19.32 nM; Plasma GS-CA1 ([2]; 150 mg/kg single s.c., Week 20, individual animals): 17.47 nM; Plasma GS-CA1 ([2]; 150 mg/kg single s.c., Week 21, individual animals): 4.49 nM; Plasma GS-CA1 ([2]; 150 mg/kg single s.c., Week 22, individual animals): 3.38 nM; Plasma GS-CA1 ([2]; 150 mg/kg single s.c., Week 23, individual animals): 2.14 nM; Plasma GS-CA1 ([2]; 150 mg/kg single s.c., Week 24, individual animals): 4.67 nM; time above the rhesus paEC95 ([2]; 300 mg/kg single s.c.): 14–16 weeks; time six times above the rhesus paEC95 ([2]; 300 mg/kg single s.c.): 5–8 weeks; Cmax ([2]; 300 mg/kg single s.c., n=8, mean ± SD): 5.53 ± 1.47 µM; concentration at 12 week ([2]; both sexes, Indian origin (outbred), rhesus monkey, in vivo, 300 mg/kg, Plasma GS-CA1, GS-CA1 300mg/kg, Week 12, individual animals): 0.0834 µM; concentration at 15 week ([2]; both sexes, Indian origin (outbred), rhesus monkey, in vivo, 300 mg/kg, Plasma GS-CA1, GS-CA1 300mg/kg, Week 15, individual animals): 0.0454 µM; concentration at 12 weeks ([2]; both sexes, Indian origin, outbred, rhesus monkey, in vivo, 300 mg/kg, Plasma GS-CA1, 300 mg/kg single s.c., Week 12, individual animals): 0.0834 µM; concentration at 15 weeks ([2]; both sexes, Indian origin, outbred, rhesus monkey, in vivo, 300 mg/kg, Plasma GS-CA1, 300 mg/kg single s.c., Week 15, individual animals): 0.0454 µM; Cmax [2, 6]: 3 µM; Tmax [2, 6]: ~1 days; Cmax [2, 7]: 5.5 µM; Tmax [2, 7]: ~1.75 days; AUC(0-inf) [2, 8]: 960 ± 435 µM·h; AUC(0-t) [2, 8]: 959 ± 435 µM·h; half-life ([2]; both sexes, Indian origin, rhesus monkey, in vivo, sc, 150 mg/kg single s.c., n=8, mean ± SD, read-out: t1/2 (converted)): 13.2 ± 5.5 days; AUC(0-inf) [2, 9]: 2040 ± 722 µM·h; AUC(0-t) [2, 9]: 2040 ± 722 µM·h; half-life ([2]; both sexes, Indian origin, rhesus monkey, in vivo, sc, 300 mg/kg single s.c., n=8, mean ± SD, read-out: t1/2 (converted)): 12 ± 1.88 days; half-life ([2]; both sexes, Indian origin, rhesus monkey, in vivo, range over the 150 and 300 mg/kg groups, read-out: mean half-life): 12 to 13.2 days; EC50 (HIV-1 isolates): 0.13 nM; Inhibits nuclear import (early-stage) (HIV capsid): Yes; Inhibits proper capsid assembly (late-stage) (HIV capsid): Yes; Inhibits virus production (late-stage) (HIV capsid): Yes; Kd [3]: 2.4 nM; Kd (CA monomer): 3.9 nM; Kd (CA pentamer): 0.27 nM; Kinetic solubility at pH 2.0 ([4]; pH 2.0): <1, <1 μM; Kinetic solubility at pH 7.4 ([4]; pH 7.4): <1, <1 μM; Predicted Hepatic Clearance, rate, primary human hepatocytes [5]: 0.02 L/h/kg
